Data on eleven molecules can be found in patent US8268803B2, “5, 6-ring annulated indole derivatives and use thereof” (Merck Sharp & Dohme Corp., priority 2006, dated 2012).

For experiment [1], the target named is T1, HCV NS5B polymerase (NS5BΔCT21, from HCV-Con 1 isolate, genotype 1b) (Hepatitis C virus genotype 1b, UniProt Q9WMX2).
T1 construct: A soluble C-terminal 21-amino acid truncated NS5B enzyme form; polyhistidine (C); made in house; host or cells: Escherichia coli
The experiment in a line: HCV NS5B Polymerase Inhibition Assay. The experiment is classed as biochemical. To be noted: incorporation of radiolabeled CTP, 22° C. for 2 hours. The source says:
A chemically synthesized 75-mer version, designated DCoH75, whose sequence matches the 3′-end of D-RNA, and DCoH75ddC, where the 3′-terminal cytidine of DCoH75 is replaced by dideoxycytidine, were used for assaying the NS5B enzyme activity as described in Ferrari et al., 12th International Symposium on HCV and Related Viruses, P-306 (2005). The sequence of the template RNA was: 5′-UGUGCCGGUCUUUCUGAACGGGAUAUAAACCUGGCCAGCUUCAUCGAACAAGUUGCCGUGUCUAUGACAUAGAUC-3′ (SEQ ID NO: 1). A soluble C-terminal 21-amino acid truncated NS5B enzyme form (NS5BΔCT21, from HCV-Con 1 isolate, genotype 1b, Genbank accession number AJ238799) was produced and purified from Escherichia coli as C-terminal polyhistidine-tagged fusion protein as described in Ferrari et al., J. Virol. 73:1649-1654 (1999). A typical assay contained 20 mM Hepes pH 7.3, 10 mM MgCl2, 60 mM NaCl, 100 μg/ml BSA, 20 units/ml RNasin, 7.5 mM DTT, 0.1 μm ATP/GTP/UTP, 0.026 μM CTP, 0.25 mM GAU, 0.03 μM RNA template, 20 μCi/ml [^33P]-CTP, 2% DMSO, and 30 or 150 nM NS5B enzyme. Reactions were incubated at 22° C. for 2 hours, then stopped by adding 150 mM EDTA, washed in DE81 filter plate in 0.5M di-basic sodium phosphate buffer, pH 7.0, and counted using Packard TopCount after the addition of scintillation cocktail. Polynucleotide synthesis was monitored by the incorporation of radiolabeled CTP. The effect of the Compounds of Formula (I) on the polymerase activity was evaluated by adding various concentrations of a Compound of Formula (I), typically in 10 serial 2-fold dilutions, to the assay mixture. The starting concentrations ranged from 200 μM to 1 μM. An IC50 value for the inhibitor, defined as the compound concentration that provides 50% inhibition of polymerase activity, was determined by fitting the cpm data to the Hill equation Y=100/(1+10^((Log IC50−X)*HillSlope)), where X is the logarithm of compound concentration, and Y is the % inhibition. Ferrari et al., 12th International Symposium on HCV and Related Viruses, P-306 (2005) described in detail this assay procedure. It should be noted that such an assay as described is exemplary and not intended to limit the scope of the invention. The skilled practitioner can appreciate that modifications including but not limited to RNA template, primer, nucleotides, NS5B polymerase form, buffer composition, can be made to develop similar assays that yield the same result for the efficacy of the compounds and compositions described in the invention.
NS5B polymerase inhibition data for selected Compounds of Formula (I) is provided below in Table 2, wherein the compound numbers correspond to the compound numbering set forth in the above specification.

Experiment [2] deals with HCV replicon cells (replicon RNA level). The experiment in a line: Cell-Based HCV Replicon Assay. To be noted: Hepatitis C virus, 72 h; replicon RNA level by real time PCR (Taqman), cells harvested on day 3. How it is done:
To measure cell-based anti-HCV activity of the a Compound of Formula (I), replicon cells were seeded at 5000 cells/well in 96-well collagen I-coated Nunc plates in the presence of the Compound of Formula (I). Various concentrations of a Compound of Formula (I), typically in 10 serial 2-fold dilutions, were added to the assay mixture, with the starting concentration ranging from 250 μM to 1 μM. The final concentration of DMSO was 0.5%, fetal bovine serum was 5%, in the assay media. Cells were harvested on day 3 by the addition of 1× cell lysis buffer (Ambion cat #8721). The replicon RNA level was measured using real time PCR (Taqman assay). The amplicon was located in 5B. The PCR primers were: 5B.2F, ATGGACAGGCGCCCTGA (SEQ ID NO: 2); 5B.2R, […] (SEQ ID NO: 3); the probe sequence was FAM-labeled CACGCCATGCGCTGCGG (SEQ ID NO: 4). GAPDH RNA was used as endogenous control and was amplified in the same reaction as NS5B (multiplex PCR) using primers and VIC-labeled probe recommended by the manufacturer (PE Applied Biosystem). The real-time RT-PCR reactions were run on ABI PRISM 7900HT Sequence Detection System using the following program: 48° C. for 30 min, 95° C. for 10 min, 40 cycles of 95° C. for 15 sec, 60° C. for 1 min. The ΔCT values (CT5B-CTGAPDH) were plotted against the concentration of test compound and fitted to the sigmoid dose-response model using XLfit4 (MDL). EC50 was defined as the concentration of inhibitor necessary to achieve ΔCT=1 over the projected baseline; EC90 the concentration necessary to achieve ΔCT=3.2 over the baseline. Alternatively, to quantitate the absolute amount of replicon RNA, a standard curve was established by including serially diluted T7 transcripts of replicon RNA in the Taqman assay. All Taqman reagents were from PE Applied Biosystems. Such an assay procedure was described in detail in e.g. Malcolm et al., Antimicrobial Agents and Chemotherapy 50: 1013-1020 (2006).
HCV Replicon assay data for selected Compounds of Formula (I) is provided below in Table 3, wherein the compound numbers correspond to the compound numbering set forth in the above specification. The data is designated as follows: “A” for EC50 values less than 1.0 micromolar (μM), “B” for EC50 values between 1.0 and 5.0 μM and “C” for EC50 values greater than 5.0 μM.

Turning to `CS(=O)(=O)NC(=O)c1c(-c2ccc[nH]c2=O)c2cc3c(cc2n1Cc1cc(F)ccc1F)CCC3` [Compound 1], in experiment [1], the IC50 was less than 25 nM. Moreover, in experiment [2], the EC50 was less than 1000 nM.
With `CS(=O)(=O)NC(=O)c1c(-c2ccc[nH]c2=O)c2cc3c(cc2n1Cc1ccc(O)cc1)CCC3` [Compound 2], the IC50 in experiment [1] is less than 25 nM. Besides, the EC50 in experiment [2] is 1000 to 5000 nM.
For `O=C(O)c1c(-c2ccc[nH]c2=O)c2cc3c(cc2n1Cc1cc(F)ccc1F)CCC3` [Compound 3], in that order: less than 25 nM and 1000 to 5000 nM.
For `CS(=O)(=O)NC(=O)c1c(-c2ccc[nH]c2=O)c2cc3c(cc2n1Cc1ccccc1O)CCC3` [Compound 4], in that order: 25 to 100 nM and 1000 to 5000 nM.
For `CS(=O)(=O)NC(=O)c1c(-c2ccc[nH]c2=O)c2cc3c(cc2n1Cc1ccc(F)cc1F)CCC3` [Compound 5], in that order: 25 to 100 nM and 1000 to 5000 nM.
Consider `CS(=O)(=O)NC(=O)c1c(-c2ccc[nH]c2=O)c2cc3c(cc2n1Cc1cccc(O)c1)CCC3` [Compound 6], for which the IC50 in experiment [1] fell in the range of 25 to 100 nM. In addition, the EC50 in experiment [2] was 1000 to 5000 nM.
In experiment [1], `CS(=O)(=O)NC(=O)c1c(-c2ccc[nH]c2=O)c2cc3c(cc2n1Cc1ccc(OCc2ccccc2)cc1)CCC3` [Compound 8] showed an IC50 greater than 100 nM. Besides, the EC50 in experiment [2] was greater than 5000 nM.
Consider `CS(=O)(=O)NC(=O)c1c(-c2ccc[nH]c2=O)c2cc3c(cc2n1Cc1ccccc1OCc1ccccc1)CCC3` [Compound 9], for which, in experiment [1], the IC50 was greater than 100 nM. Also, in experiment [2], the EC50 was greater than 5000 nM.
For `CS(=O)(=O)NC(=O)c1c(-c2ccc[nH]c2=O)c2cc3c(cc2n1Cc1cccc(OCc2ccccc2)c1)CCC3` [Compound 10], in experiment [1], the IC50 was greater than 100 nM.
The same measure, in the same setting: the figure for `Nc1cc(Cn2c(C(=O)O)c(-c3ccc[nH]c3=O)c3cc4scnc4cc32)ccn1` [Compound 11] is greater than 100 nM.
Molecule `CS(=O)(=O)NC(=O)c1c(-c2ccc[nH]c2=O)c2cc3scnc3cc2n1Cc1ccnc(N)c1` [Compound 12] gave an IC50 in experiment [1] greater than 100 nM. This molecule displayed an EC50 in experiment [2] greater than 5000 nM.
